Measurements as given in patent publication US20260184708A1, “PYRIDAZINONES AND METHODS OF USE THEREOF” (GFB (ABC), LLC, priority 2017, published 2026).
Like-named read-outs stand apart in the source and are kept apart here.

Molecular target: T1, TRPC5 (Homo sapiens, UniProt Q9UL62)
T1 construct: expressed in transfected cells; host or cells: HEK 293
T1 sequence (Q9UL62 1-973): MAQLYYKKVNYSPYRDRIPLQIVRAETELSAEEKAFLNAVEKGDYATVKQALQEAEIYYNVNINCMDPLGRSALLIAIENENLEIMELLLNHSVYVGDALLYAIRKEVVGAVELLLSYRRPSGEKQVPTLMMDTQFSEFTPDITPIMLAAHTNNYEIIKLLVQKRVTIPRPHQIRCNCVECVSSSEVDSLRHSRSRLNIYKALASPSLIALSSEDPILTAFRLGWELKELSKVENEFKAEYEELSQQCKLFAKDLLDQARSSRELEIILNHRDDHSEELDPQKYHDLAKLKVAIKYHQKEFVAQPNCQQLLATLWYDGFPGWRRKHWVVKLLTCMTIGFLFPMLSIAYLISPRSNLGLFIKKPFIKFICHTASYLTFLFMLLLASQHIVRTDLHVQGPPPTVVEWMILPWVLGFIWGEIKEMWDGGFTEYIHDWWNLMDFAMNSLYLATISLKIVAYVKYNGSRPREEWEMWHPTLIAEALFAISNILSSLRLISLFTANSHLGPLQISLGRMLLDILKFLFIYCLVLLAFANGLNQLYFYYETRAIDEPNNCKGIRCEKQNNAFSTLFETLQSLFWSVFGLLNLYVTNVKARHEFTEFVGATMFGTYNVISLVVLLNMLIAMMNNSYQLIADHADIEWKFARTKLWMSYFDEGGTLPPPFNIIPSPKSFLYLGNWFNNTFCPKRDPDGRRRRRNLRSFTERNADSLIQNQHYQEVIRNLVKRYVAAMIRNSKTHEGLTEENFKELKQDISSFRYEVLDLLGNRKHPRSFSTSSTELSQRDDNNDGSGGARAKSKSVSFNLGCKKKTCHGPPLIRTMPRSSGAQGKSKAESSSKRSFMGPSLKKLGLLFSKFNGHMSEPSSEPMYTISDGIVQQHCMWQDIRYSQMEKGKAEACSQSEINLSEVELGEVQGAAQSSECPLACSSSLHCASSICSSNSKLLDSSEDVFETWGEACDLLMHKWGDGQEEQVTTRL
Experiment: TRPC5 automated patch clamp assay (Qpatch), current block after rosiglitazone stimulation
Type: cell-based
Details: HEK293 cells overexpressing TRPC5
Experimental: HEK 293 cells expressing human TRPC5 were harvested, re-suspended in serum free medium, and added to the automated platform and used within 2-3 hours. Internal and external physiological solutions were freshly prepared prior to the assay. The external solution contained: 145 mM NaCl, 4 mM KCl, 2 mM CaCl2), 1 mM MgCl2, 10 mM HEPES, 10 mM glucose, pH 7.4 with NaOH and 300 mOsm/L. The internal solution contained 120 mM L-aspartic acid, 120 mM CsOH·H2O, 20 mM CsCl, 2 mM MgCl2, 8.8 mM CaCl2), 10 mM EGTA, 10 mM HEPES, 10 mM Glucose, 0.1 mM GTP and 2 mM Na2ATP; pH 7.2 with CsOH and 290 mOsm/L. The free internal Ca2+ concentration was buffered to 1 μM.
The automated electrophysiological platform QPatch 16 from Sophion (Denmark) was used to carry out the compounds profiling. The series resistance and quality of seals were continuously monitored during the experiments. Data was analyzed using Sophion QPatch assay software 5.6 (Odense). IC50 values were calculated using a least squares regression algorithm (Hill equation).
To monitor the ion currents, a voltage ramp from −100 mV to +100 mV, over 300 ms, was applied every 10 seconds, from a holding potential of −60 mV.
After recording for a minimum of 60 seconds control period, Rosiglitazone (30 uM), was applied to activate the channel.

[1] = Table 3, rosiglitazone stimulation, 80 mV, read-out: TRPC5_QP_ XC50_80
[2] = Table 3, rosiglitazone stimulation, 100 mV, read-out: TRPC5_QP_ XC50_100
[3] = Table 5, rosiglitazone stimulation, 80 mV, read-out: TRPC5_QP_ XC50_80
[4] = Table 5, rosiglitazone stimulation, 100 mV, read-out: TRPC5_QP_ XC50_100
[5] = Table 4, rosiglitazone stimulation, 80 mV, read-out: TRPC5_QP_ XC50_80
[6] = Table 4, rosiglitazone stimulation, 100 mV, read-out: TRPC5_QP_ XC50_100
[7] = rosiglitazone stimulation, 80 mV, read-out: TRPC5_QP XC50_80
[8] = rosiglitazone stimulation, 100 mV, read-out: TRPC5_QP XC50_100

Row | SMILES | IC50 [1] [µM] | IC50 [2] [µM] | IC50 [3] [µM] | IC50 [4] [µM] | further results
1 | O=c1[nH]ncc(N2CCN(Cc3ccccc3OC(F)(F)F)CC2)c1Br | 1 to 5 | 1 to 5 |  |  | 
2 | Cc1ccc(CN2CCN(c3cn[nH]c(=O)c3Cl)CC2=O)cc1 |  |  | 5 to 10 | 5 to 10 | 
3 | O=c1[nH]ncc(N2CCc3c(ncn3Cc3ccccc3C(F)F)C2)c1Cl [drawing 839] |  |  |  |  | IC50 (Table 6, read-out: TRPC5-QPatch IC50): 5 to 10 µM
4 | Cc1ccccc1CN1CCN(c2cn[nH]c(=O)c2C#CC(C)C)CC1=O | 10 to 500 | 10 to 500 |  |  | 
5 | Cc1ccccc1CN1CCN(c2cn[nH]c(=O)c2C#CC2CC2)CC1=O | 10 to 500 | 10 to 500 |  |  | 
6 | Cc1cc(F)ccc1CN1CCN(c2cn[nH]c(=O)c2Cl)C(C)C1 (stereo not drawn) |  |  |  |  | IC50 [5]: 1 to 5 µM; IC50 [6]: 1 to 5 µM
7 | C[C@H](c1ccccc1)N1CCN(c2cn[nH]c(=O)c2Cl)CC1 |  |  |  |  | IC50 [5]: 1 to 5 µM; IC50 [6]: 1 to 5 µM
8 | Cc1n[nH]c(=O)c(Cl)c1N1CCN(Cc2ccccc2C(F)(F)F)C(=O)C1 |  |  | 5 to 10 | 5 to 10 | 
9 | Cn1nccc1CN1CCN(c2cn[nH]c(=O)c2Br)CC1 | 5 to 10 | 5 to 10 |  |  | 
10 | O=c1[nH]ncc(N2CCN(Cc3c(F)cccc3F)CC2)c1Cl | 1 to 5 | 1 to 5 |  |  | 
11 | Cc1cc(F)ccc1CN1CCN(c2c(Cl)cn[nH]c2=O)CC1 | 1 to 5 | 1 to 5 |  |  | 
12 | CN(C)C(=O)CN1CCN(c2cn[nH]c(=O)c2Cl)CC1 [drawing 673] | 10 to 500 | 10 to 500 |  |  | 
13 | CC(c1ccccc1)n1cnc2c1CCN(c1cn[nH]c(=O)c1Cl)C2 (stereo not drawn) |  |  | 1 to 5 | 1 to 5 | 
14 | Cc1ccccc1CN1CCN(c2c(Cl)cn[nH]c2=O)CC1 |  |  |  |  | IC50 [5]: 5 to 10 µM; IC50 [6]: 5 to 10 µM
15 | O=c1[nH]ncc(N2CCN(Cc3ccccc3C(F)(F)F)CC2)c1Cl [drawing 699] |  |  |  |  | IC50 [5]: 1 to 5 µM; IC50 [6]: 1 to 5 µM
16 | O=C1CN(c2cn[nH]c(=O)c2Cl)CCN1Cc1ccccc1-c1ccccc1 |  |  |  |  | IC50 [5]: 1 to 5 µM; IC50 [6]: 1 to 5 µM
17 | Cc1ccccc1CN1CCN(c2cn[nH]c(=O)c2N2CCOCC2)CC1=O | 10 to 500 | 10 to 500 |  |  | 
18 | O=C1CN(c2cn[nH]c(=O)c2Cl)CCN1Cc1ccc(F)cc1 |  |  | 5 to 10 | 5 to 10 | 
19 | O=C1CN(c2cn[nH]c(=O)c2C(F)(F)F)CCN1Cc1ccccc1C(F)(F)F |  |  | 1 to 5 | 1 to 5 | 
20 | Cc1ccccc1CN1CCN(c2cn[nH]c(=O)c2-c2ccccc2)CC1=O | 10 to 500 | 10 to 500 |  |  | 
21 | O=C1CN(c2cn[nH]c(=O)c2Cl)CCN1Cc1cccc2[nH]ncc12 |  |  | 10 to 500 | 10 to 500 | 
22 | C[C@@H]1CN(Cc2cccc3ccccc23)CCN1c1cn[nH]c(=O)c1Cl |  |  |  |  | IC50 [5]: 5 to 10 µM; IC50 [6]: 5 to 10 µM
23 | O=c1[nH]ncc(N2CCC(Cc3ccccc3)CC2)c1Br |  |  |  |  | IC50 [7]: 10 to 500 µM; IC50 [8]: 10 to 500 µM
24 | O=C1CN(c2cn[nH]c(=O)c2Cl)CCN1Cc1cccnc1Oc1ccccc1 |  |  | 5 to 10 | 5 to 10 | 
25 | Cc1ccccc1CN1CCN(c2cn[nH]c(=O)c2Br)CC1 |  |  |  |  | IC50 [7]: 1 to 5 µM; IC50 [8]: 1 to 5 µM

Row | SMILES | IC50 [1] [µM] | IC50 [2] [µM] | IC50 [3] [µM] | IC50 [4] [µM] | further results
26 | Cc1ccccc1CN1CCN(c2cn[nH]c(=O)c2C(C)C)CC1=O |  |  |  |  | IC50 [5]: 1 to 5 µM; IC50 [6]: 1 to 5 µM
27 | O=c1[nH]ncc(N2CCN(Cc3ccccc3C(F)(F)F)CC2)c1Cl [drawing 694] | 1 to 5 | 1 to 5 |  |  | 
28 | Cc1ccccc1CN1CC2CC1CN2c1cn[nH]c(=O)c1Br (stereo not drawn) | 10 to 500 | 10 to 500 |  |  | 
29 | CC(C)(C)CN1CCN(c2cn[nH]c(=O)c2Br)CC1 | 10 to 500 | 10 to 500 |  |  | 
30 | Cc1ncccc1CN1CCN(c2cn[nH]c(=O)c2Cl)CC1 [drawing 719] |  |  |  |  | IC50 [5]: 1e-05 to 1 µM; IC50 [6]: 1e-05 to 1 µM
31 | O=c1[nH]ncc(N2CCN(Cc3ccc(C(F)(F)F)cc3)CC2)c1Cl | 10 to 500 | 10 to 500 |  |  | 
32 | O=C1CN(c2c(Br)n[nH]c(=O)c2Cl)CCN1Cc1ccccc1C(F)(F)F |  |  | 1 to 5 | 5 to 10 | 
33 | O=C1CN(c2cn[nH]c(=O)c2Cl)CCN1Cc1ccc(F)cc1C(F)(F)F |  |  | 1e-05 to 1 | 1e-05 to 1 | 
34 | Cc1cc(F)ccc1CN1CCN(c2cc(=O)[nH]nc2-c2ccccc2)CC1 |  |  | 1 to 5 | 1 to 5 | 
35 | O=C1CN(c2cn[nH]c(=O)c2Cl)CCN1Cc1ccccc1C(F)(F)F | 1e-05 to 1 | 1e-05 to 1 |  |  | 
36 | C=Cc1n[nH]c(=O)c(N2CCN(Cc3ccc(F)cc3C)CC2)c1Cl |  |  | 10 to 500 | 10 to 500 | 
37 | Cc1ccccc1S(=O)(=O)N1CCN(c2cn[nH]c(=O)c2Br)CC1 |  |  |  |  | IC50 [7]: 10 to 500 µM; IC50 [8]: 10 to 500 µM
38 | O=C1CN(c2c(Cl)cn[nH]c2=O)CCN1Cc1ccccc1OC(F)(F)F |  |  | 10 to 500 | 10 to 500 | 
39 | Cc1cc(C(F)(F)F)ccc1CN1CCN(c2cn[nH]c(=O)c2Cl)CC1=O |  |  | 1 to 5 | 10 to 500 | 
40 | Cc1ccccc1CN1CCN(c2ccn[nH]c2=O)CC1=O |  |  | 10 to 500 | 10 to 500 | 
41 | O=C1CN(c2c(Cl)cn[nH]c2=O)CCN1Cc1ccc(F)cc1F |  |  | 10 to 500 | 10 to 500 | 
42 | Cc1cc(F)ccc1CN1CCN(c2ccn[nH]c2=O)CC1 |  |  | 10 to 500 | 10 to 500 | 
43 | C[C@@H]1CN(Cc2ccccc2C(F)(F)F)CCN1c1cn[nH]c(=O)c1Cl [drawing 716] |  |  |  |  | IC50 [5]: 1 to 5 µM; IC50 [6]: 1 to 5 µM
44 | Cc1cc(F)ccc1CN1CCN(c2cc(-c3ccccc3)n[nH]c2=O)CC1 |  |  | 1 to 5 |  | 
45 | Cc1cc(Cl)ccc1CN1CCN(c2cn[nH]c(=O)c2Cl)CC1=O [drawing 737] |  |  |  |  | IC50 [5]: 1 to 5 µM; IC50 [6]: 1 to 5 µM
46 | Cc1ccccc1CN1CC2(C1)CN(c1cn[nH]c(=O)c1Br)C2 | 10 to 500 | 10 to 500 |  |  | 
47 | Cc1ccccc1CN1CC2(CCN(c3cn[nH]c(=O)c3Br)C2)C1 | 10 to 500 | 10 to 500 |  |  | 
48 | Cc1cccnc1CN1CCN(c2cn[nH]c(=O)c2Cl)CC1 |  |  |  |  | IC50 [5]: 5 to 10 µM; IC50 [6]: 5 to 10 µM
49 | CCN(CC)C(=O)CN1CCN(c2cn[nH]c(=O)c2Cl)CC1 |  |  |  |  | IC50 [5]: 10 to 500 µM; IC50 [6]: 10 to 500 µM
